# Data published in patent publication US7074789B2, “Kinase inhibitors” (Amgen Inc., priority 1999, dated 2006).
# Values joined by “and” are separate entries in the source; they are usually repeats but may differ in a detail not shown here. Equal values may be shown once.
# Experiments:
# Assay type in all cases: biochemical
# [1] = target: T1, AKT (Homo sapiens, UniProt Q9Y243); experiment: Kinase inhibition assay (33P transfer), AKT; details: Table 2, kinase inhibition class; read-out: AKT3-1
# T1 construct: Kinases are expressed as either kinase domains or full length constructs; made in house
# Procedure, shortened: (§1)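 Kinase domain or full-length constructs, GST- or polyHis-tagged, expressed in E. coli or baculovirus-High Five cells, sometimes with regulatory polypeptides. Activity measured as 33PO4 transfer from ATP to plate-bound poly(Glu,Tyr) 4:1 or poly(Arg,Ser) 3:1; after incubation, plates washed with 0.5% phosphoric acid and counted by liquid scintillation.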
# [2] = target: T2, Lck (Homo sapiens, UniProt P06239); experiment: Kinase inhibition assay (33P transfer), Lck; details: Table 3; read-out: Lck-1
# T2 construct: Kinases are expressed as either kinase domains or full length constructs; made in house
# Procedure, shortened: as §1
# [3] = target: T3, Itk (Homo sapiens, UniProt Q08881); experiment: Kinase inhibition assay (33P transfer), Itk; details: Table 3; read-out: Itk-1
# T3 construct: Kinases are expressed as either kinase domains or full length constructs; made in house
# T3 sequence (Q08881 1-620): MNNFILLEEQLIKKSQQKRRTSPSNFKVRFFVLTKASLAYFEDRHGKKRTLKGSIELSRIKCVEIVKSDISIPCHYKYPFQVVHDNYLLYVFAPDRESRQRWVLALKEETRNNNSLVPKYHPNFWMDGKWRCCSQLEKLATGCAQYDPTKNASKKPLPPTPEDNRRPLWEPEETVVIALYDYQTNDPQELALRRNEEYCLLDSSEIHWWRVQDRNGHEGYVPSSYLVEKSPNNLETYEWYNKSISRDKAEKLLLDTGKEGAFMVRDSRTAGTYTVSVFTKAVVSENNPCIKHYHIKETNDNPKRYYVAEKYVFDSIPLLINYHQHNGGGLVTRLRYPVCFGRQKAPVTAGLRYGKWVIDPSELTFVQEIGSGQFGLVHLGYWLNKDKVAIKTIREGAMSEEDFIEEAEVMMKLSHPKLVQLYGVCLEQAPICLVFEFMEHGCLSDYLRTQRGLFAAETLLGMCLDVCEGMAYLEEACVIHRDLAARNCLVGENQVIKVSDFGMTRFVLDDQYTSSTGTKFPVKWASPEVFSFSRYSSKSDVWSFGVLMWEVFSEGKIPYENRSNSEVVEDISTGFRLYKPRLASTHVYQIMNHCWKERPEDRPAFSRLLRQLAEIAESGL
# Procedure, shortened: (§2)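 Recombinant kinase domains or full-length GST- or His-tagged constructs, from E. coli or baculovirus/High Five cells, sometimes with regulatory polypeptides. Transfer of 33P from ATP to plate-bound poly(Glu,Tyr) 4:1 or poly(Arg,Ser) 3:1 counted by liquid scintillation after phosphoric acid wash; IC50 is the concentration halving incorporation.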
# [4] = target: T4, Kdr (Homo sapiens, UniProt P35968); experiment: Kinase inhibition assay (33P transfer), Kdr; details: Table 3; read-out: KDR-1
# T4 construct: Kinases are expressed as either kinase domains or full length constructs; made in house
# Procedure, shortened: as §1
# [5] = target: T5, IGFR-1 (Homo sapiens, UniProt P08069); experiment: Kinase inhibition assay (33P transfer), IGFR-1; details: Table 2, kinase inhibition class
# T5 construct: Kinases are expressed as either kinase domains or full length constructs; made in house
# [6] = target: T6, EGFR (Homo sapiens, UniProt P00533); experiment: Kinase inhibition assay (33P transfer), EGFR; details: Table 2, kinase inhibition class; read-out: EGFR-1
# T6 construct: Kinases are expressed as either kinase domains or full length constructs; made in house
# Procedure, shortened: as §2
# [7] = target: T7, Zap-70 (Homo sapiens, UniProt P43403); experiment: Kinase inhibition assay (33P transfer), Zap-70; details: Table 3; read-out: Zap-1
# T7 construct: Kinases are expressed as either kinase domains or full length constructs; made in house
# T7 sequence (P43403 1-619): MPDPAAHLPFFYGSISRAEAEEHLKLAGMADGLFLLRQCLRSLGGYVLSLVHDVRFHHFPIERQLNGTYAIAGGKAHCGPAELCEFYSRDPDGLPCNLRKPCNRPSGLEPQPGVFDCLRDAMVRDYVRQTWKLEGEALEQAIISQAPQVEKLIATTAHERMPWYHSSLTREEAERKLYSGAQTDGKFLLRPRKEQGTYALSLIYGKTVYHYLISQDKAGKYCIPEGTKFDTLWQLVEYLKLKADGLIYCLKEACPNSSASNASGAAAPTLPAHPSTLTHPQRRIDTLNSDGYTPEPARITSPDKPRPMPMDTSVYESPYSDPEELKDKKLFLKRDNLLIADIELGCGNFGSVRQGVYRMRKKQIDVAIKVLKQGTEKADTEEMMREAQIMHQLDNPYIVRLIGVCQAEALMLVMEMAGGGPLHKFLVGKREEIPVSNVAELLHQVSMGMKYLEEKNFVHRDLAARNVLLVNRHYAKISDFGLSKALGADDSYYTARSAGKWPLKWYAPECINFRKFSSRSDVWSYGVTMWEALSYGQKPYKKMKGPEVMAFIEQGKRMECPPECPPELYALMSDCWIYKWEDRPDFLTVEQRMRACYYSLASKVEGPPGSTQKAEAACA
# Procedure, shortened: as §1
# [8] = target: T8, c-Met (Homo sapiens, UniProt P08581); experiment: Kinase inhibition assay (33P transfer), c-Met; details: Table 2, kinase inhibition class; read-out: Met-1
# T8 construct: Kinases are expressed as either kinase domains or full length constructs; made in house
# Procedure, shortened: as §2
# T6 sequence (P00533 25-1210, species assumed): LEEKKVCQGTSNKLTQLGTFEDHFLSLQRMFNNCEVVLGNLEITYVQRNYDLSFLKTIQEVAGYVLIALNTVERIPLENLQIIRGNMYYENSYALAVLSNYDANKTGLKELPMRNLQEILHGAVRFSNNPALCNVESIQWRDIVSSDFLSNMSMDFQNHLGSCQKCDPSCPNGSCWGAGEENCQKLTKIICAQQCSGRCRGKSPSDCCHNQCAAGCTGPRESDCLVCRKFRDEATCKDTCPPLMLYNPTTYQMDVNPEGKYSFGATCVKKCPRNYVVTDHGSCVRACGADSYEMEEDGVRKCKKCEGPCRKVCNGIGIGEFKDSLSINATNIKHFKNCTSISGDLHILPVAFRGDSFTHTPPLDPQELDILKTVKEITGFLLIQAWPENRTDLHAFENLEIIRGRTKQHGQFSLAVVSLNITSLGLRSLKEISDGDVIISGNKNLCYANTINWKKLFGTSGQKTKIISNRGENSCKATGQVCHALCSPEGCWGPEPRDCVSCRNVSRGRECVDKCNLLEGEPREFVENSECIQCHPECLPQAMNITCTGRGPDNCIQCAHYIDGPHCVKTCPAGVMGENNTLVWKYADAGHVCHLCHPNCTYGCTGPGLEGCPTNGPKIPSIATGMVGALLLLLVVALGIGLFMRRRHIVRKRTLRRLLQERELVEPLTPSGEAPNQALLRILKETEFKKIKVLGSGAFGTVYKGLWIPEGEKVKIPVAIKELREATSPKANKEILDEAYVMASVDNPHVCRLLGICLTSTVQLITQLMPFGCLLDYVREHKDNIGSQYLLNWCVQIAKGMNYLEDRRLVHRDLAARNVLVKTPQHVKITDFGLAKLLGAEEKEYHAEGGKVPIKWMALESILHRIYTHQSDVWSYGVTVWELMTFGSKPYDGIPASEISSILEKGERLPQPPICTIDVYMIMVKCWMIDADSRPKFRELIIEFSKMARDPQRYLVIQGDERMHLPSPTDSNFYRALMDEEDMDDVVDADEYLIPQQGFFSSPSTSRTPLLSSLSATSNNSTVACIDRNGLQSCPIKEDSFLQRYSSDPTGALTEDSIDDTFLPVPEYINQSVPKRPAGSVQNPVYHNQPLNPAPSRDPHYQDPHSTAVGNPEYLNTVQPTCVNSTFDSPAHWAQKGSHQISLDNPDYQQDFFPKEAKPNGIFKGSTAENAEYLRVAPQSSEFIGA
# T5 sequence (P08069 31-1367): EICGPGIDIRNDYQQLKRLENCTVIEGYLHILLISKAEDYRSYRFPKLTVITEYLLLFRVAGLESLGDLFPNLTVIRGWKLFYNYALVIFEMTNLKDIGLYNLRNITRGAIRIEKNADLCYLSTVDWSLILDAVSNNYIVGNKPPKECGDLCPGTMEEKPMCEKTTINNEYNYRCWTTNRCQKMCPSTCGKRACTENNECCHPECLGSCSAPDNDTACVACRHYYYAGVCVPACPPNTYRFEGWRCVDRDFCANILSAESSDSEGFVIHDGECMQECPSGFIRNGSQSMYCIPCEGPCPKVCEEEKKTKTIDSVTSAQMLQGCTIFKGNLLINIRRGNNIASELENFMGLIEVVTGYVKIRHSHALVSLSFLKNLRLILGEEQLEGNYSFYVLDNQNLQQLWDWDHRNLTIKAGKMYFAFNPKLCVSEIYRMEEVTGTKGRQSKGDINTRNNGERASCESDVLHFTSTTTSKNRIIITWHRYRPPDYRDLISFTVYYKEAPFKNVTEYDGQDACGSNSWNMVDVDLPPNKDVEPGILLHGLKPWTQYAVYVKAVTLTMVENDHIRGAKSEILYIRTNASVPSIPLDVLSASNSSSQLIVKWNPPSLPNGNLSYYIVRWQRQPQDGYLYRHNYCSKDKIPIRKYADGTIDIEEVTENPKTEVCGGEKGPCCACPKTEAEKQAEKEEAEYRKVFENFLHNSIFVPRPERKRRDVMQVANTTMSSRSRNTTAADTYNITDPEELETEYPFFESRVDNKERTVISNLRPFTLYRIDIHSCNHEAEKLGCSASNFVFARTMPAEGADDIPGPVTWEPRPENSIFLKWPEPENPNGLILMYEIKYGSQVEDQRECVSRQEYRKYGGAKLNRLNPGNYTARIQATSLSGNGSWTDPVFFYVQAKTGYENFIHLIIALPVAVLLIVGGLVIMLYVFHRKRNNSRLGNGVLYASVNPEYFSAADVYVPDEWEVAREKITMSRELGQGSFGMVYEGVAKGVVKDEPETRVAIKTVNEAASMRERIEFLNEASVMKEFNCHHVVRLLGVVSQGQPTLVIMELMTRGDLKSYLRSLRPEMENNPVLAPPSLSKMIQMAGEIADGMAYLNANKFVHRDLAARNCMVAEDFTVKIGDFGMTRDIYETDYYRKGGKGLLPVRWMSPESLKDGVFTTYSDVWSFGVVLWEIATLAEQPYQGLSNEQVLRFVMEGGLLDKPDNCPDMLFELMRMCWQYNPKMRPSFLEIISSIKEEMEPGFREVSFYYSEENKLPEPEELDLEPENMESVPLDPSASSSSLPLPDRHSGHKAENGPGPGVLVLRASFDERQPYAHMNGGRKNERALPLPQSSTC
# T2 sequence (P06239 whole entry, species assumed, the tested form may be a part): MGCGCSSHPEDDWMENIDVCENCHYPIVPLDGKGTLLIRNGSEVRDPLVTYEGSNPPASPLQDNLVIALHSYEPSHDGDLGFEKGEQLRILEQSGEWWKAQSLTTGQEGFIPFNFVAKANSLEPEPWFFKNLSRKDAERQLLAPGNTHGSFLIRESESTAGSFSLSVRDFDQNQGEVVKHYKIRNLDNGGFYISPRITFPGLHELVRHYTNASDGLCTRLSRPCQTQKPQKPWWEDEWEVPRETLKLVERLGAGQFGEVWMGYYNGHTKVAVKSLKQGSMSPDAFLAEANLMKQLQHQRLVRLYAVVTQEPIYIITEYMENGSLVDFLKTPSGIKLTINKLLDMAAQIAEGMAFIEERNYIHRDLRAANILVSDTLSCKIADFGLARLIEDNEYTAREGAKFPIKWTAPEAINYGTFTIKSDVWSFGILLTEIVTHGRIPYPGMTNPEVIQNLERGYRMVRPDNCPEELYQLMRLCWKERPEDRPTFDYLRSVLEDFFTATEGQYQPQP
# T1 sequence (Q9Y243 whole entry, the tested form may be a part): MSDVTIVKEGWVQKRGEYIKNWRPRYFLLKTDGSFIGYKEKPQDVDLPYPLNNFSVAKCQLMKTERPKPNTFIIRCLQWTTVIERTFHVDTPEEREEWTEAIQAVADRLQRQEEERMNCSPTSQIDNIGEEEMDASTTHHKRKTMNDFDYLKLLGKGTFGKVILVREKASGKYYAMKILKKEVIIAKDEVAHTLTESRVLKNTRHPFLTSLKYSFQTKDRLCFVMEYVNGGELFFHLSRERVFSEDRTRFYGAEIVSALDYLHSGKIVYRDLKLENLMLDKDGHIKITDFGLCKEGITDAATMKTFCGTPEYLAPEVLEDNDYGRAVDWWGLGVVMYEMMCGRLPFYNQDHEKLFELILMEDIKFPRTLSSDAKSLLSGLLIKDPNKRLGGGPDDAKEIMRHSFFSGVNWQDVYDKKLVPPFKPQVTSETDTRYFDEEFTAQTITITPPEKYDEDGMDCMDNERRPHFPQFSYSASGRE
# T4 sequence (P35968 20-1356, species assumed): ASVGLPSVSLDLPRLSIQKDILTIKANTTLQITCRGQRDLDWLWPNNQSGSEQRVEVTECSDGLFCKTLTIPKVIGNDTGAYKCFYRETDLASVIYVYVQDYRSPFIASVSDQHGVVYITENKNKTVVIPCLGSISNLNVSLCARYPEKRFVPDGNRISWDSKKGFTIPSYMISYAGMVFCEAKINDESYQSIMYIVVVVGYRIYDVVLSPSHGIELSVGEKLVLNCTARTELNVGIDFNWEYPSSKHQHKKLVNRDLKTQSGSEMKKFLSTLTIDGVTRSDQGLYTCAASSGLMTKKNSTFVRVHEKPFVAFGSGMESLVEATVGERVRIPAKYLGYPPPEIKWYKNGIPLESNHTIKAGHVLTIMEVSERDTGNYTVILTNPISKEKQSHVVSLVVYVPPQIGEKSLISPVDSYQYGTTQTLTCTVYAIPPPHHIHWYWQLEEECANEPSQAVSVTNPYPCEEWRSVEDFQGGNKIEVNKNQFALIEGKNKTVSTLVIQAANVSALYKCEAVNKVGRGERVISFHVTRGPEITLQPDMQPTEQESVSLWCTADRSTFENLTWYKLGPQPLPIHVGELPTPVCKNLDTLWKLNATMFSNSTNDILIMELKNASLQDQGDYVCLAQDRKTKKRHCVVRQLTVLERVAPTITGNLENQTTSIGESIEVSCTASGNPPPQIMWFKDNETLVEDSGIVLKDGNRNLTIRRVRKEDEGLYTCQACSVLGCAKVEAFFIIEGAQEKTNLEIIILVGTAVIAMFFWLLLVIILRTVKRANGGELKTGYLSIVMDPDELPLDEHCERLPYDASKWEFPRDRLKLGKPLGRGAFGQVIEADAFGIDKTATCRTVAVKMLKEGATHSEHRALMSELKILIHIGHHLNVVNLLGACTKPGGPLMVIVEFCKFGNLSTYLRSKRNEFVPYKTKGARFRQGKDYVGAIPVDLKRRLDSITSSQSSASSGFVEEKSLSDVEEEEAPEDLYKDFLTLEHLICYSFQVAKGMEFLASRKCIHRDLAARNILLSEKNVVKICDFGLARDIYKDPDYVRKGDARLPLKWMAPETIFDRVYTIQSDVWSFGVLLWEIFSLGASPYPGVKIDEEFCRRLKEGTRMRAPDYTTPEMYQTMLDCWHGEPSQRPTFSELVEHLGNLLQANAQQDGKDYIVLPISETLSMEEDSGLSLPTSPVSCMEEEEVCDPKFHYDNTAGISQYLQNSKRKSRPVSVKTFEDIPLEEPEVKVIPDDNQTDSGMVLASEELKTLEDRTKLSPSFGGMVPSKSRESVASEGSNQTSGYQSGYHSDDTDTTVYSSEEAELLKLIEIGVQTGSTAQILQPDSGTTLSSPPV
IC50 [1],IC50 [2],IC50 [3],IC50 [4],IC50 [5],IC50 [6],IC50 [7],IC50 [8],SMILES
> 9.4 µM,> 9.4 µM,> 9.4 µM,> 9.4 µM,> 9.4 µM,> 9.4 µM,> 9.4 µM,> 9.4 µM,COc1ccc2c(c1)c(CCN(C)C)cn2-c1ncnc(Nc2cc(OC)c(OC)c(OC)c2)n1 [Compound 333]
> 12.6 µM,> 12.6 µM,> 12.6 µM,> 12.6 µM,> 12.6 µM,> 12.6 µM,> 12.6 µM,> 12.6 µM,COc1cc(Nc2ncnc(Nc3ncncn3)n2)cc(OC)c1OC [Compound 254]
> 16.2 µM,1.44 to 8.66 µM,> 16.2 µM,> 16.2 µM,> 16.2 µM,> 16.2 µM,> 16.2 µM,> 16.2 µM,COc1cc(Nc2ncnc(N)n2)cc(OC)c1OC [Compound 925]
> 10.7 µM,0.947 to 5.68 µM,> 10.7 µM,< 0.947 µM,0.947 to 5.68 µM,> 10.7 µM,> 10.7 µM,0.947 to 5.68 µM,COc1cc(Nc2ncnc(-c3ccnc(N4CCCCC4)c3)n2)cc(OC)c1OC [Compound 345]
> 18.2 µM,> 18.2 µM,> 18.2 µM,14.2 to 18.2 µM,> 18.2 µM,> 18.2 µM,9.73 to 14.2 µM,> 18.2 µM,Nc1nc2ccccc2n1-c1ncnc(Cl)n1 [Compound 1029]
> 16.9 µM,> 16.9 µM,> 16.9 µM,> 16.9 µM,> 16.9 µM,> 16.9 µM,> 16.9 µM,> 16.9 µM,Fc1ccccc1Nc1ncnc(-c2ccccc2)n1 [Compound 20]
> 15.1 µM,> 15.1 µM,> 15.1 µM,> 15.1 µM,> 15.1 µM,> 15.1 µM,> 15.1 µM,> 15.1 µM,NC(=O)c1cccc(Nc2ncnc(-c3cccs3)n2)c1 [Compound 358]
> 13.1 µM,1.16 to 6.97 µM,> 13.1 µM,6.97 to 10.2 µM,> 13.1 µM,> 13.1 µM,> 13.1 µM,10.2 to 13.1 µM,COc1cc(Nc2ncnc(-c3cccs3)n2)cc(OC)c1OC [Compound 217]
> 13.6 µM,> 13.6 µM,> 13.6 µM,> 13.6 µM,> 13.6 µM,> 13.6 µM,> 13.6 µM,> 13.6 µM,COc1cc(Nc2ncnc(N3CCCC3)n2)cc(OC)c1OC [Compound 181]
10.1 to 13 µM,> 13 µM,> 13 µM,> 13 µM,> 13 µM,> 13 µM,> 13 µM,> 13 µM,COc1cc(Nc2ncnc(N3CCOCC3)n2)cc(OC)c1OC [Compound 209]
> 14.7 µM,> 14.7 µM,> 14.7 µM,> 14.7 µM,> 14.7 µM,> 14.7 µM,> 14.7 µM,> 14.7 µM,COC(=O)c1ccc(Nc2ncnc(-c3ccccc3)n2)cc1 [Compound 163]
> 12.1 µM,1.08 to 6.46 µM and > 12.1 µM,> 12.1 µM,> 12.1 µM and 6.46 to 9.42 µM,> 12.1 µM,9.42 to 12.1 µM and > 12.1 µM,> 12.1 µM,> 12.1 µM,COc1cc(Nc2ncnc(Nc3cc(C)nn3C)n2)cc(OC)c1OC [Compound 393]
> 14.3 µM,> 14.3 µM,> 14.3 µM,> 14.3 µM,> 14.3 µM,> 14.3 µM,> 14.3 µM,> 14.3 µM,COc1ccc(Nc2ncnc(-c3cccs3)n2)cc1OC [Compound 357]
> 11.4 µM,> 11.4 µM,> 11.4 µM,> 11.4 µM,> 11.4 µM,> 11.4 µM,> 11.4 µM,> 11.4 µM,COc1cc(Nc2ncnc(N3CCc4ccccc4C3)n2)cc(OC)c1OC [Compound 326]
> 10.1 µM,> 10.1 µM,> 10.1 µM,5.38 to 7.84 µM,> 10.1 µM,> 10.1 µM,> 10.1 µM,> 10.1 µM,COc1cc(Nc2ncnc(N3CCN(C(=O)OC(C)(C)C)CC3)n2)cc(OC)c1OC [Compound 211]
> 16.5 µM,> 16.5 µM,> 16.5 µM,> 16.5 µM,> 16.5 µM,> 16.5 µM,> 16.5 µM,> 16.5 µM,Fc1cccc(Nc2ncnc(-c3cccs3)n2)c1 [Compound 1073]
> 15.1 µM,> 15.1 µM,> 15.1 µM,8.04 to 11.7 µM,> 15.1 µM,> 15.1 µM,> 15.1 µM,11.7 to 15.1 µM,c1csc(-c2ncnc(Nc3ccc4c(c3)OCO4)n2)c1 [Compound 1072]
> 10.3 µM,> 10.3 µM,> 10.3 µM,5.51 to 8.04 µM,> 10.3 µM,> 10.3 µM,> 10.3 µM,> 10.3 µM,COc1cc(Nc2ncnc(-n3cc(OC(C)=O)c4ccccc43)n2)cc(OC)c1OC [Compound 205]
> 10.6 µM,> 10.6 µM,> 10.6 µM,0.945 to 5.67 µM,> 10.6 µM,> 10.6 µM,> 10.6 µM,> 10.6 µM,COc1cc(Nc2ncnc(N3CCN(c4ccccn4)CC3)n2)cc(OC)c1OC [Compound 213]
> 15.4 µM,> 15.4 µM,> 15.4 µM,12 to 15.4 µM,> 15.4 µM,> 15.4 µM,> 15.4 µM,> 15.4 µM,NC(=O)c1cccc(Nc2ncnc(-c3ccccc3)n2)c1 [Compound 151]
> 13.7 µM,> 13.7 µM,> 13.7 µM,7.31 to 10.7 µM,> 13.7 µM,> 13.7 µM,> 13.7 µM,> 13.7 µM,COc1cc(Nc2ncnc(-n3ccnc3)n2)cc(OC)c1OC [Compound 183]
> 10 µM,> 10 µM,> 10 µM,0.892 to 5.35 µM,> 10 µM,> 10 µM,> 10 µM,> 10 µM,FC(F)C(F)(F)Oc1cccc(Nc2ncnc(-c3ccnc(N4CCCCC4)c3)n2)c1 [Compound 346]
> 11.9 µM,1.06 to 6.34 µM,1.06 to 6.34 µM,> 11.9 µM,6.34 to 9.25 µM,> 11.9 µM,> 11.9 µM,> 11.9 µM,COc1cc(Nc2ncnc(-n3ccc4cccnc43)n2)cc(OC)c1OC [Compound 327]
> 15.8 µM,> 15.8 µM,> 15.8 µM,> 15.8 µM,> 15.8 µM,> 15.8 µM,> 15.8 µM,> 15.8 µM,COc1cccc(Nc2ncnc(-c3cccs3)n2)n1 [Compound 362]
7.22 to 9.29 µM,> 9.29 µM,> 9.29 µM,4.95 to 7.22 µM,> 9.29 µM,> 9.29 µM,> 9.29 µM,> 9.29 µM,CC(C)(C)OC(=O)Nc1ccc(Nc2ncnc(Nc3ccc(OCc4ccccc4)cc3)n2)cc1 [Compound 162]
